From patent US8158635B2, “Solid forms comprising 4-[9-(tetrahydro-furan-3-yl)-8-(2,4,6-trifluoro-phenylamino)-9H-purin-2-ylamino]-cyclohexan-1-ol, compositions thereof, and uses therewith” (Signal Pharmaceuticals, LLC, priority 2006, dated 2012)
Structures can show the parent of a compound that is named as a salt.

Key:
[1] = Equilibration of solid form in solvent for 4 weeks at 40° C., resulting form by XRPD; assay type: physicochemical
Procedure: Equilibration slurry and evaporation experiments were carried out by adding an excess of Compound I free base or HCl salt to 2 mL of solvent. […] Upon reaching equilibrium, the saturated supernatant solution was removed and allowed to evaporate slowly in an open vial under nitrogen at 25° C. or 50° C., respectively. The slurry resulting from the equilibration was filtered and air-dried. X-ray powder diffraction (XRPD) measurements were performed in accordance with United States Pharmacopeia (USP) monograph <941> entitled “X-ray Diffraction” (See, e.g., The United States Pharmacopeia, The National Formulary, 2003, The Unites States Pharmacopeial Convention, Inc., Rockville, Md., 2002, which is herein incorporated by reference in its entirety). A Thermo ARL X'TRA X-ray powder diffractometer (Thermo Electron Corp., Waltham, Mass.), equipped with Nickel-filtered Cu Kα radiation at 1.54 Å, was used for XRPD measurements from about 1.5 °2θ to about 40 °2θ, with a step size of about 0.020°, a count time of about 0.50 seconds per step, and a step scan rate of about 2.40°/min. The instrument was equipped with a fine focus X-ray tube. The voltage and amperage were set at 45 kV and 40 mA, respectively. The divergence slits were set at 0.5 mm and 0.2 mm. Diffracted radiation was measured using a Peltier-cooled Si (Li) solid-state detector. Representative XRPD patterns were presented displaying intensity (counts per second) versus position (°2θ). A sintered alumina standard was used to check peak positions. Peak positions may vary from sample to sample by approximately ±0.1 °2θ. Variation in peak position may depend upon multiple factors, including particle size, sample preparation, data collection temperature and parameters. Variation in peak intensity may occur, e.g., as a result of preferred orientation and/or variation in crystal habit.

[2] = Storage stability at stress conditions (about 40° C. and about 75% RH); assay type: physicochemical; conditions: about 40° C. and about 75% RH for about four weeks
Procedure: In certain embodiments, Form A of the HCl salt of Compound I is substantially pure. In certain embodiments, Form A of the HCl salt of Compound I is stable upon slurry in particular solvents at particular temperatures. For example, in certain embodiments, Form A of the HCl salt is stable in, e.g., acetone, acetonitrile, ethyl acetate, heptane, MTBE, toluene, THF and mixtures of two or more thereof at about 40° C. for about four weeks. In certain embodiments, Form A of the HCl salt is stable upon storage at particular stress conditions. For example, in certain embodiments, Form A of the HCl salt of Compound I is stable upon storage at about 40° C. and about 75% RH for about four weeks.

## OC1CCC(Nc2ncc3nc(Nc4c(F)cc(F)cc4F)n(C4CCOC4)c3n2)CC1 (stereo not shown) [Form A of the HCl salt of Compound I, 4-[9-(tetrahydro-furan-3-yl)-8-(2,4,6-trifluoro-phenylamino)-9H-purin-2-ylamino]-cyclohexan-1-ol]
[1]; Equilibrate HCl salt Form A in 2-Propanol for 4 weeks at 40° C.
  Resulting Form by XRPD: Compound I HCl Salt Form A
[1]; Equilibrate HCl salt Form A in Acetonitrile for 4 weeks at 40° C.
  Resulting Form by XRPD: Compound I HCl Salt Form A
[1]; Equilibrate HCl salt Form A in Ethyl acetate for 4 weeks at 40° C.
  Resulting Form by XRPD: Compound I HCl Salt Form A
[1]; Equilibrate HCl salt Form A in Heptane for 4 weeks at 40° C.
  Resulting Form by XRPD: Compound I HCl Salt Form A
[1]; Equilibrate HCl salt Form A in MTBE for 4 weeks at 40° C.
  Resulting Form by XRPD: Compound I HCl Salt Form A
[1]; Equilibrate HCl salt Form A in THF for 4 weeks at 40° C.
  Resulting Form by XRPD: Compound I HCl Salt Form A
[1]; Equilibrate HCl salt Form A in Toluene for 4 weeks at 40° C.
  Resulting Form by XRPD: Compound I HCl Salt Form A
[1]; Equilibrate HCl salt in Acetone for 4 weeks at 40° C.
  Resulting Form by XRPD: Compound I HCl Salt Form A
[1]; acetone, acetonitrile, ethyl acetate, heptane, MTBE, toluene, THF and mixtures, about 40° C. for about four weeks
  stability upon slurry in solvents: stable
[2]
  stability upon storage at stress conditions: stable
